The values below come from patent US9358226B2, “Triarylmethane analogs and their use in treating cancers” (Emory University, priority 2007, dated 2016).

For the assay, the system named is bloodstream form of T. brucei. As to the kind of experiment: Bloodstream form of T. brucei, live cells, overnight treatment. The assay is classed as cell-based. As for the experimental part:
These and other compounds were tested on live cells.
The experiment was conducted with one million cells of the bloodstream form of T. brucei. After over night treatment with different compounds (at concentrations of 50 and 100 μmolar), cells were counted and plotted with controls.

The molecule `CN(C)c1ccc(C(=C2C=CC(=[N+](C)C)C=C2)c2ccc(N(C)C)cc2)cc1` [Gentian Violet (GV), hexamethyl pararosaniline chloride] returned a half-inhibitory concentration (IC50) (Trypanosoma brucei, bloodstream form of T. brucei) of less than 20 nM. The “cell survival after over night treatment” value (one million cells, 50 and 100 μmolar) was “All cells died”.
